Key:
[1] = Stability of compound in saline at 37 degreeC incubated for 6 hrs by HPLC analysis; format: physicochemical; settings: buffer
[2] = Drug uptake in male rat white matter region at 5 microCi/ml incubated for 30 mins by phosphor imager analysis; format: ADME, tissue-based, Brain white matter; settings: 0.5 h
[3] = Drug uptake in male mouse cerebellum at 5 microCi/ml incubated for 30 mins by phosphor imager analysis; format: ADME, tissue-based; settings: 0.5 h
[4] = Drug uptake in male mouse midbrain at 5 microCi/ml incubated for 30 mins by phosphor imager analysis; format: ADME, tissue-based; settings: 0.5 h
[5] = Drug uptake in male mouse thalamus at 5 microCi/ml incubated for 30 mins by phosphor imager analysis; format: ADME, tissue-based; settings: 0.5 h
[6] = Drug uptake in male Sprague-Dawley rat brain at 12.6 to 18.6 MBq, iv administered into tail vein measured at 1.5 mins post-injection by PET/CT imaging analysis; format: ADME, organism-based; settings: in vivo, 0.025 h, dose 12.6-18.6 MBq
[7] = Drug uptake in male Sprague-Dawley rat cerebellum at 12.6 to 18.6 MBq, iv administered into tail vein by PET/CT imaging analysis; format: ADME, organism-based; settings: in vivo, dose 12.6-18.6 MBq
[8] = Drug uptake in male Sprague-Dawley rat cortex at 12.6 to 18.6 MBq, iv administered into tail vein by PET/CT imaging analysis; format: ADME, organism-based; settings: in vivo, dose 12.6-18.6 MBq
[9] = Drug uptake in male Sprague-Dawley rat brain at 12.6 to 18.6 MBq, iv administered into tail vein measured after rapid washout by PET/CT imaging analysis; format: ADME, organism-based; settings: in vivo, dose 12.6-18.6 MBq
[10] = Biodistribution in male ICR mouse brain at 0.74 MBq, iv administered into tail vein measured at 2 mins post-injection by automatic gamma counter analysis; format: ADME, organism-based; settings: in vivo
[11] = Biodistribution in male ICR mouse brain at 0.74 MBq, iv administered into tail vein measured at 10 mins post-injection by automatic gamma counter analysis; format: ADME, organism-based; settings: in vivo
[12] = Biodistribution in male ICR mouse brain at 0.74 MBq, iv administered into tail vein measured at 60 mins post-injection by automatic gamma counter analysis; format: ADME, organism-based; settings: in vivo, 1 h
[13] = Biodistribution in male ICR mouse blood at 0.74 MBq, iv administered into tail vein measured at 10 mins post-injection by automatic gamma counter analysis; format: ADME, organism-based; settings: in vivo
[14] = Biodistribution in male ICR mouse blood at 0.74 MBq, iv administered into tail vein measured at 60 mins post-injection by automatic gamma counter analysis; format: ADME, organism-based; settings: in vivo, 1 h
[15] = Biodistribution in male ICR mouse bone at 0.74 MBq, iv administered into tail vein measured at 30 mins post-injection by automatic gamma counter analysis; format: ADME, organism-based, Bone element; settings: in vivo, 0.5 h
[16] = Biodistribution in male ICR mouse bone at 0.74 MBq, iv administered into tail vein measured at 60 mins post-injection by automatic gamma counter analysis; format: ADME, organism-based, Bone element; settings: in vivo, 1 h
[17] = Biodistribution in male ICR mouse heart at 0.74 MBq, iv administered into tail vein by automatic gamma counter analysis; format: ADME, organism-based; settings: in vivo
[18] = Biodistribution in male ICR mouse liver at 0.74 MBq, iv administered into tail vein by automatic gamma counter analysis; format: ADME, organism-based; settings: in vivo
[19] = Biodistribution in male ICR mouse lungs at 0.74 MBq, iv administered into tail vein by automatic gamma counter analysis; format: ADME, organism-based, Lung; settings: in vivo
[20] = Biodistribution in male ICR mouse kidneys at 0.74 MBq, iv administered into tail vein by automatic gamma counter analysis; format: ADME, organism-based, Kidney; settings: in vivo
[21] = Biodistribution in male ICR mouse pancreas at 0.74 MBq, iv administered into tail vein by automatic gamma counter analysis; format: ADME, organism-based; settings: in vivo
[22] = Biodistribution in male ICR mouse small intestine at 0.74 MBq, iv administered into tail vein measured at 60 mins post-injection by automatic gamma counter analysis; format: ADME, organism-based; settings: in vivo, 1 h
[23] = Biodistribution in male ICR mouse brain at 0.74 MBq, iv administered into tail vein measured at 30 mins post-injection by automatic gamma counter analysis; format: ADME, organism-based; settings: in vivo, 0.5 h
[24] = Biodistribution in male ICR mouse blood at 0.74 MBq, iv administered into tail vein measured at 30 mins post-injection by automatic gamma counter analysis; format: ADME, organism-based; settings: in vivo, 0.5 h
[25] = Biodistribution in male ICR mouse blood at 0.74 MBq, iv administered into tail vein measured at 2 mins post-injection by automatic gamma counter analysis; format: ADME, organism-based; settings: in vivo
[26] = Biodistribution in male ICR mouse bone at 0.74 MBq, iv administered into tail vein measured at 10 mins post-injection by automatic gamma counter analysis; format: ADME, organism-based, Bone element; settings: in vivo
[27] = Biodistribution in male ICR mouse bone at 0.74 MBq, iv administered into tail vein measured at 2 mins post-injection by automatic gamma counter analysis; format: ADME, organism-based, Bone element; settings: in vivo
[28] = Biodistribution in male ICR mouse heart at 0.74 MBq, iv administered into tail vein measured at 60 mins post-injection by automatic gamma counter analysis; format: ADME, organism-based; settings: in vivo, 1 h
[29] = Biodistribution in male ICR mouse liver at 0.74 MBq, iv administered into tail vein measured at 60 mins post-injection by automatic gamma counter analysis; format: ADME, organism-based; settings: in vivo, 1 h
[30] = Biodistribution in male ICR mouse lungs at 0.74 MBq, iv administered into tail vein measured at 60 mins post-injection by automatic gamma counter analysis; format: ADME, organism-based, Lung; settings: in vivo, 1 h
[31] = Biodistribution in male ICR mouse kidneys at 0.74 MBq, iv administered into tail vein measured at 60 mins post-injection by automatic gamma counter analysis; format: ADME, organism-based, Kidney; settings: in vivo, 1 h
[32] = Biodistribution in male ICR mouse pancreas at 0.74 MBq, iv administered into tail vein measured at 60 mins post-injection by automatic gamma counter analysis; format: ADME, organism-based; settings: in vivo, 1 h
[33] = Biodistribution in male ICR mouse brain at 0.74 MBq, iv administered into tail vein pre-treated with GSK'547 by automatic gamma counter analysis; format: ADME, organism-based; settings: in vivo

**Q.** With `Cc1ccc(C2CC=NN2C(=O)C2CCN(C(=O)c3cccc([18F])n3)CC2)cc1F` (stereo not drawn) as the molecule, how does the Stability [1] read?
**A.** Stable

**Q.** And the Drug uptake [2]?
**A.** Active

**Q.** What about the Drug uptake [3] of the same molecule?
**A.** Active

**Q.** What about the Drug uptake [4] of the same molecule?
**A.** Active

**Q.** What about the Drug uptake [5] of the same molecule?
**A.** Active

**Q.** What about the SUVmax [6] of the same molecule?
**A.** 0.81

**Q.** And the SUV [7]?
**A.** Active

**Q.** And the SUV [8]?
**A.** Active

**Q.** What about the SUV [9] of the same molecule?
**A.** 0.12

**Q.** And the Drug uptake [10]?
**A.** 4.8 % ID/g

**Q.** And the Drug uptake [11]?
**A.** 1.34 % ID/g

**Q.** What about the Drug uptake [12] of the same molecule?
**A.** 0.14 % ID/g

**Q.** What about the Drug uptake [13] of the same molecule?
**A.** 5.32 % ID/g

**Q.** And the Drug uptake [14]?
**A.** 0.97 % ID/g

**Q.** What about the Drug uptake [15] of the same molecule?
**A.** 7.94 % ID/g

**Q.** And the Drug uptake [16]?
**A.** 6.69 % ID/g

**Q.** And the Drug uptake [17]?
**A.** > 6.5 % ID/g

**Q.** What about the Drug uptake [18] of the same molecule?
**A.** > 6.5 % ID/g

**Q.** And the Drug uptake [19]?
**A.** > 6.5 % ID/g

**Q.** And the Drug uptake [20]?
**A.** > 6.5 % ID/g

**Q.** What about the Drug uptake [21] of the same molecule?
**A.** > 6.5 % ID/g

**Q.** What about the Drug uptake [22] of the same molecule?
**A.** 20.75 % ID/g

**Q.** What about the Drug uptake [23] of the same molecule?
**A.** 0.36 % ID/g

**Q.** And the Drug uptake [24]?
**A.** 2.55 % ID/g

**Q.** And the Drug uptake [25]?
**A.** 4.57 % ID/g

**Q.** And the Drug uptake [26]?
**A.** 3.6 % ID/g

**Q.** What about the Drug uptake [27] of the same molecule?
**A.** 3.09 % ID/g

**Q.** What about the Drug uptake [28] of the same molecule?
**A.** < 4 % ID/g

**Q.** And the Drug uptake [29]?
**A.** < 4 % ID/g

**Q.** What about the Drug uptake [30] of the same molecule?
**A.** < 4 % ID/g

**Q.** What about the Drug uptake [31] of the same molecule?
**A.** < 4 % ID/g

**Q.** And the Drug uptake [32]?
**A.** < 4 % ID/g

**Q.** What about the Drug uptake [33] of the same molecule?
**A.** 91%
